One experiment has as its system SH-SY5Y M-currents (KCNQ2, KCNQ3 and KCNQ5). In words: SH-SY5Y native cell line FLIPR assay (voltage-sensitive dye DiBAC). The settings on record: FLIPR assay, SH-SY5Y native cell line; Table 1; read-out: SH-SY5Y EC50. The format is cell-based, mouse neuroblastoma, rat glioma hybrid cell line. The method in brief:
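Response is peak DiBAC fluorescence change, normalised to the maximum from a positive control agent, sampled every 30 s over 25 min. Before compound addition, SH-SY5Y cells differentiated with PGE1 plus isomethylbutylxanthine were dye-loaded for 1 h in EBSS with […] DiBAC.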
As for `O=C(Cc1cccc(Cl)c1)Nc1nc2ccc(C(F)(F)F)cn2c1CC1CCCCC1` [Compound 43, 2-(3-chlorophenyl)-N-(3-(cyclohexylmethyl)-6-(trifluoromethyl)imidazo[1,2-a]pyridin-2-yl)acetamide], the EC50 is below 500 nM.

As to `CC(C)(C)Cc1c(NC(=O)CC2CC2)nc2ccc(C(F)(F)F)cn12` [Compound 57, 2-cyclopropyl-N-(3-neopentyl-6-(trifluoromethyl)imidazo[1,2-a]pyridin-2-yl)acetamide], the EC50 was below 500 nM.

Consider `O=C(Cc1ccc(F)c(F)c1)Nc1nc2ccc(C(F)(F)F)cn2c1C1CC1` [Compound 77, N-(3-cyclopropyl-6-(trifluoromethyl)imidazo[1,2-a]pyridin-2-yl)-2-(3,4-difluorophenyl)acetamide], for which the EC50 was below 500 nM.

As for `Cc1ccc2nc(NC(=O)C3CCC(F)(F)CC3)c(C3CC3)n2n1` [Compound 78, N-(3-cyclopropyl-6-methylimidazo[1,2-b]pyridazin-2-yl)-4,4-difluorocyclohexanecarboxamide], the EC50 was in the range of 500 to 3000 nM.

On to `CC(C)CCc1c(NC(=O)CC(C)(C)C)nc2ccc(C(F)(F)F)cn12` [Compound 31, N-(3-isopentyl-6-(trifluoromethyl)imidazo[1,2-a]pyridin-2-yl)-3,3-dimethylbutanamide], for which the EC50 is below 500 nM.

Consider `CC(C)(C)CC(=O)Nc1nc2ccc(F)cn2c1Cc1ccc(C(F)(F)F)cc1` [Compound 28, N-(6-fluoro-3-(4-(trifluoromethyl)benzyl)imidazo[1,2-a]pyridin-2-yl)-3,3-dimethylbutanamide], for which the EC50 is below 500 nM.

Regarding `CC1(CC(=O)Nc2nc3ccc(C(F)(F)F)cn3c2C2CCCC2)CCCC1` [Compound 56, N-(3-cyclopentyl-6-(trifluoromethyl)imidazo[1,2-a]pyridin-2-yl)-2-(1-methylcyclopentyl)acetamide], the EC50 is below 500 nM.

Still in this experiment, the particulars now being: FLIPR assay, SH-SY5Y native cell line; Table 2; read-out: SH-SY5Y EC50.
`O=C(Cc1ccc(F)cc1)Nc1nc2cc(C(F)(F)F)ccn2c1-c1ccccc1` [Compound 99, 2-(4-fluorophenyl)-N-(3-phenyl-7-(trifluoromethyl)imidazo[1,2-a]pyridin-2-yl)acetamide]: the EC50 is below 500 nM.

As for `CC(C)C(C)C(=O)Nc1nc2ccc(F)cn2c1-c1ccc(F)cc1` (stereo not shown) [Compound 162, N-(6-fluoro-3(4-fluorophenyl)imidazo[1,2-a]pyridin-2-yl)-2,3-dimethylbutanamide], the EC50 lay in the range of 500 to 3000 nM.

Consider `CC(C(=O)Nc1nc2cc(C(F)(F)F)ccn2c1-c1ccccc1)c1ccccc1` (stereo not shown) [Compound 110, 2-phenyl-N-(3-phenyl-7-(trifluoromethyl)imidazo[1,2-a]pyridin-2-yl)propanamide], for which the EC50 is 500 to 3000 nM.

Regarding `CC(CC(=O)Nc1nc2ncccn2c1-c1cccc(OC(F)(F)F)c1)C(F)(F)F` (stereo not shown) [Compound 325, 4,4,4-trifluoro-3-methyl-N-(3-(3-(trifluoromethoxy)phenyl)imidazo[1,2-a]pyrimidin-2-yl)butanamide], the EC50 fell in the range of 3000 to 10000 nM.

Turning to `O=C(Cc1ccccc1)Nc1nc2cc(C(F)(F)F)ccn2c1-c1ccccc1` [Compound 101, 2-phenyl-N-(3-phenyl-7-(trifluoromethyl)imidazo[1,2-a]pyridin-2-yl)acetamide], the EC50 lay within 500 to 3000 nM.

Regarding `Cc1ccc(-c2c(NC(=O)CC(C)(C)C)nc3ccc(F)cn23)cc1Cl` [Compound 258, N-(3-(3-chloro-4-methylphenyl)-6-fluoroimidazo[1,2-a]pyridin-2-yl)-3,3-dimethylbutanamide], the EC50 was below 500 nM.

For `CC(C)(C)CC(=O)Nc1nc2ccc(F)cn2c1-c1ccc(F)c(C(F)F)c1` [Compound 196, N-(3-(3-(difluoromethyl)-4-fluorophenyl)-6-fluoroimidazo[1,2-a]pyridin-2-yl)-3,3-dimethylbutanamide], the EC50 was below 500 nM.

For the compound `O=C(Cc1ccccc1)Nc1nc2ccc(F)cn2c1-c1ccc(OC(F)(F)F)c(F)c1` [Compound 295, N-(6-fluoro-3-(3-fluoro-4-(trifluoromethoxy)phenyl)imidazo[1,2-a]pyridin-2-yl)-2-phenylacetamide], the EC50 is below 500 nM.

Take `CC1(CC(=O)Nc2nc3ccc(F)cn3c2-c2ccc(OC(F)(F)F)cc2)CCCC1` [Compound 193, N-(6-fluoro-3-(4-(trifluoromethoxy)phenyl)imidazo[1,2-a]pyridin-2-yl)-2-(1-methylcyclopentyl)acetamide]: the EC50 was below 500 nM.

Turning to `O=C(Cc1ccc(F)cc1)Nc1nc2ccc(F)cn2c1-c1ccccc1` [Compound 92, N-(6-fluoro-3-phenylimidazo[1,2-a]pyridin-2-yl)-2-(4-fluorophenyl)acetamide], the EC50 was 500 to 3000 nM.

For the compound `O=C(CCC(F)(F)F)Nc1nc2ccc(F)cn2c1-c1cccc(C(F)(F)F)c1` [Compound 281, 4,4,4-trifluoro-N-(6-fluoro-3-(3-(trifluoromethyl)phenyl)imidazo[1,2-a]pyridin-2-yl)butanamide], the EC50 fell in the range of 500 to 3000 nM.

For `O=C(Cc1ccc(F)cc1)Nc1nc2ccc(F)cn2c1-c1ccc(F)cc1F` [Compound 117, N-(3-(2,4-difluorophenyl)-6-fluoroimidazo[1,2-a]pyridin-2-yl)-2-(4-fluorophenyl)acetamide], the EC50 lay in the range of 500 to 3000 nM.

For the compound `O=C(Cc1ccc(F)cc1)Nc1nc2ncccn2c1-c1cccc(OC(F)(F)F)c1` [Compound 324, 2-(4-fluorophenyl)-N-(3-(3-(trifluoromethoxy)phenyl)imidazo[1,2-a]pyrimidin-2-yl)acetamide], the EC50 was 3000 to 10000 nM.

For the compound `O=C(CC1CC1)Nc1nc2ccc(F)cn2c1-c1cccc(C(F)(F)F)c1` [Compound 269, 2-cyclopropyl-N-(6-fluoro-3-(3-(trifluoromethyl)phenyl)imidazo[1,2-a]pyridin-2-yl)acetamide], the EC50 is 500 to 3000 nM.

As to `O=C(Cc1ccc(F)c(F)c1)Nc1nc2ccc(F)cn2c1-c1ccc(OC(F)(F)F)cc1` [Compound 241, 2-(3,4-difluorophenyl)-N-(6-fluoro-3-(4-(trifluoromethoxy)phenyl)imidazo[1,2-a]pyridin-2-yl)acetamide], the EC50 was below 500 nM.

As for `CC(C)(C)CC(=O)Nc1nc2ccc(F)cn2c1-c1cccc(C(F)(F)F)c1` [Compound 163, N-(6-fluoro-3-(3-(trifluoromethyl)phenyl)imidazo[1,2-a]pyridin-2-yl)-3,3-dimethylbutanamide], the EC50 is below 500 nM.

`Cc1cc(-c2c(NC(=O)CC(C)(C)C)nc3ccc(F)cn23)ccc1Cl` [Compound 257, N-(3-(4-chloro-3-methylphenyl)-6-fluoroimidazo[1,2-a]pyridin-2-yl)-3,3-dimethylbutanamide]: the EC50 was below 500 nM.

As for `Cc1ccn2c(-c3ccc(F)cc3)c(NC(=O)Cc3ccc(C(F)(F)F)cc3)nc2c1` [Compound 187, N-(3-(4-fluorophenyl)-7-methylimidazo[1,2-a]pyridin-2-yl)-2-(4-(trifluoromethyl)phenyl)acetamide], the EC50 is below 500 nM.

Consider `CC(C)(C)CC(=O)Nc1nc2ccc(F)cn2c1-c1ccccc1Cl` [Compound 158, N-(3-(2-chlorophenyl)-6-fluoroimidazo[1,2-a]pyridin-2-yl)-3,3-dimethylbutanamide], for which the EC50 was in the range of 500 to 3000 nM.

Take `O=C(CCc1ccccc1)Nc1nc2ccc(F)cn2c1-c1ccc(F)cc1` [Compound 134, N-(6-fluoro-3-(4-fluorophenyl)imidazo[1,2-a]pyridin-2-yl)-3-phenylpropanamide]: the EC50 lay in the range of 500 to 3000 nM.

The experiment is the same for the next values; noted with them: SH-SY5Y native cell line, FLIPR assay (Table 3); read-out: SH-SY5Y EC50.
`O=C(Nc1nc2ccc(F)cn2c1-c1nc2ccccc2s1)C1CCCC1` [Compound 378, N-(3-(benzo[d]thiazol-2-yl)-6-fluoroimidazo[1,2-a]pyridin-2-yl)cyclopentanecarboxamide]: the EC50 lay within 3000 to 10000 nM.

Regarding `O=C(Cc1ccc(F)cc1)Nc1nc2ccc(F)cn2c1-c1cc(C(F)(F)F)ccn1` [Compound 410, N-(6-fluoro-3-(4-(trifluoromethyl)pyridin-2-yl)imidazo[1,2-a]pyridin-2-yl)-2-(4-fluorophenyl)acetamide], the EC50 was below 500 nM.

Consider `Cc1cccc2nc(NC(=O)Cc3ccc(F)cc3)c(-c3nc4ccccc4s3)n12` [Compound 393, N-(3-(benzo[d]thiazol-2-yl)-5-methylimidazo[1,2-a]pyridin-2-yl)-2-(4-fluorophenyl)acetamide], for which the EC50 lay within 500 to 3000 nM.

As to `O=C(CC(F)(F)F)Nc1nc2ccc(F)cn2c1-c1nc2ccccc2s1` [Compound 381, N-(3-(benzo[d]thiazol-2-yl)-6-fluoroimidazo[1,2-a]pyridin-2-yl)-3,3,3-trifluoropropanamide], the EC50 was in the range of 500 to 3000 nM.

Turning to `Cc1ccc2nc(NC(=O)Cc3ccc(F)cc3)c(-c3nc4ccccc4s3)n2n1` [Compound 385, N-(3-(benzo[d]thiazol-2-yl)-6-methylimidazo[1,2-b]pyridazin-2-yl)-2-(4-fluorophenyl)acetamide], the EC50 is 3000 to 10000 nM.

The experiment is the same for the next values; noted with them: SH-SY5Y native cell line, FLIPR assay (Table 6); read-out: SH-SY5Y EC50.
As for `CC(C)(CC(=O)Nc1nc2ccc(C(F)(F)F)cn2c1C1CC1)C(F)(F)F` [Compound 432, N-(3-cyclopropyl-6-(trifluoromethyl)imidazo[1,2-a]pyridin-2-yl)-4,4,4-trifluoro-3,3-dimethylbutanamide], the EC50 was below 500 nM.

As for `CC(C)(CC(=O)Nc1nc2ccc(C(F)(F)F)cn2c1C1CCCC1)C(F)(F)F` [Compound 442, N-(3-cyclopentyl-6-(trifluoromethyl)imidazo[1,2-a]pyridin-2-yl)-4,4,4-trifluoro-3,3-dimethylbutanamide], the EC50 is below 500 nM.

With `CC(C)(CC(=O)Nc1nc2ccc(F)cn2c1CC1CCCCC1)C(F)(F)F` [Compound 444, N-(3-(cyclohexylmethyl)-6-fluoroimidazo[1,2-a]pyridin-2-yl)-4,4,4-trifluoro-3,3-dimethylbutanamide], the EC50 was below 500 nM.

The same experiment, now with this note: read-out: SH-SY5Y_EC50.
As for `O=C(Cc1ccc(F)cc1)Nc1nc2ccc(F)cn2c1-c1ccccc1` [Compound 92, N-(6-fluoro-3-phenylimidazo[1,2-a]pyridin-2-yl)-2-(4-fluorophenyl)acetamide], the EC50 is 732 nM.

Regarding `O=C(CC(F)(F)F)Nc1nc2ccc(F)cn2c1-c1nc2ccccc2s1` [Compound 381, N-(3-(benzo[d]thiazol-2-yl)-6-fluoroimidazo[1,2-a]pyridin-2-yl)-3,3,3-trifluoropropanamide], the EC50 came out at 2130 nM.

Source of the values: patent US9018208B2, “Heterocycles as potassium channel modulators” (Icagen Inc., priority 2007, dated 2015).
